Converted amounts (≈) assume the structure as drawn. Like-named read-outs stand apart in the source and are kept apart here.
Columns and labels:
Type in all cases: cell-based
[1] = system: Staphylococcus aureus X1.1; experiment: Agar-dilution MIC, Staphylococcus aureus X1.1
Description: (§1) The compounds of formulas 1 and 2 inhibit the growth of certain pathogenic bacteria, especially Gram-positive bacteria and Gram-negative […] such as Haemophilus influenzae.

[2] = system: Staphylococcus aureus V41; experiment: Agar-dilution MIC, Staphylococcus aureus V41; settings: Staphylococcus aureus V41, penicillin-resistant strain, read-out: minimal inhibitory concentration (MIC)
Description: as §1

[3] = system: Staphylococcus epidermidis 270; experiment: Agar-dilution MIC, Staphylococcus epidermidis 270; settings: read-out: minimal inhibitory concentration (MIC)
Description: as §1

[4] = system: Staphylococcus epidermidis 222; experiment: Agar-dilution MIC, Staphylococcus epidermidis 222; settings: read-out: minimal inhibitory concentration (MIC)
Description: as §1

[5] = system: Streptococcus pyogenes C203; experiment: Agar-dilution MIC, Streptococcus pyogenes C203; settings: read-out: minimal inhibitory concentration (MIC)
Description: as §1

[6] = system: Streptococcus pneumoniae Park I; experiment: Agar-dilution MIC, Streptococcus pneumoniae Park I; settings: read-out: minimal inhibitory concentration (MIC)
Description: as §1

[7] = system: Streptococcus faecalis X66; experiment: Agar-dilution MIC, Streptococcus faecalis X66; settings: Enterococcus faecalis, read-out: minimal inhibitory concentration (MIC)
Description: as §1

[8] = system: Streptococcus faecalis 2041; experiment: Agar-dilution MIC, Streptococcus faecalis 2041; settings: Enterococcus faecalis, read-out: minimal inhibitory concentration (MIC)
Description: as §1

[9] = system: Haemophilus influenzae C.L.; experiment: Agar-dilution MIC, Haemophilus influenzae C.L.; settings: ampicillin-sensitive strain, read-out: minimal inhibitory concentration (MIC)
Description: as §1

[10] = system: Haemophilus influenzae 76; experiment: Agar-dilution MIC, Haemophilus influenzae 76; settings: Haemophilus influenzae 76, ampicillin-resistant strain, read-out: minimal inhibitory concentration (MIC)
Description: as §1

[11] = Staphylococcus aureus X1.1, agar dilution, read-out: minimal inhibitory concentration (MIC)

MIC [1, 11] [µg/mL]	MIC [2] [µg/mL]	MIC [3] [µg/mL]	MIC [4] [µg/mL]	MIC [5] [µg/mL]	MIC [6] [µg/mL]	MIC [7] [µg/mL]	MIC [8] [µg/mL]	MIC [9] [µg/mL]	MIC [10] [µg/mL]	Structure (SMILES)	MIC ([1]; Staphylococcus aureus, X1.1, read-out: minimal inhibitory concentration (MIC)) [µg/mL]
> 128	> 128	> 128	> 128	128 (≈ 186 µM)	32 (≈ 46.5 µM)	64 (≈ 93 µM)	> 128	64 (≈ 93 µM)	64 (≈ 93 µM)	CO[C@]1(C)C[C@H](O[C@H]2[C@H](C)[C@@H](O[C@@H]3O[C@H](C)C[C@H](N(C)C)[C@H]3O)[C@@](C)(CC(C)=O)OC(=O)[C@H](C)[C@H](C(C)=O)OC(=O)[C@@H]2C)O[C@@H](C)[C@@H]1O [Compound 8]	–
> 128	> 128	> 128	> 128	64 (≈ 97.6 µM)	32 (≈ 48.8 µM)	16 (≈ 24.4 µM)	128 (≈ 195 µM)	16 (≈ 24.4 µM)	16 (≈ 24.4 µM)	CO[C@]1(C)C[C@H](O[C@H]2[C@H](C)[C@@H](O[C@@H]3O[C@H](C)C[C@H](N(C)C)[C@H]3O)[C@@]3(C)CC(C)=C(O3)[C@H](C)[C@H](C(C)=O)OC(=O)[C@@H]2C)O[C@@H](C)[C@@H]1O [Compound 4]	–
64 (≈ 91.4 µM)	> 128	64 (≈ 91.4 µM)	64 (≈ 91.4 µM)	64 (≈ 91.4 µM)	64 (≈ 91.4 µM)	64 (≈ 91.4 µM)	64 (≈ 91.4 µM)	128 (≈ 183 µM)	128 (≈ 183 µM)	CC[C@@H](O)[C@H](C)[C@@H]1OC(=O)[C@H](C)[C@@H](O[C@H]2C[C@@](C)(OC)[C@@H](O)[C@H](C)O2)[C@H](C)[C@@H](O[C@@H]2O[C@H](C)C[C@H](N(C)C)[C@H]2O)[C@@]2(C)CC(C)=C(O2)[C@@H]1C [Compound 3a]	–
> 128	> 128	> 128	> 128	32 (≈ 44.7 µM)	16 (≈ 22.3 µM)	64 (≈ 89.4 µM)	> 128	32 (≈ 44.7 µM)	32 (≈ 44.7 µM)	CC[C@@H](O)[C@@](C)(O)[C@@H]1OC(=O)[C@H](C)[C@@H](O[C@H]2C[C@@](C)(OC)[C@@H](O)[C@H](C)O2)[C@H](C)[C@@H](O[C@@H]2O[C@H](C)C[C@H](N(C)C)[C@H]2O)[C@@]2(C)CC(C)=C(O2)[C@@H]1C [Compound 3]	–

Structure (SMILES)	MIC [1, 11] [µg/mL]	MIC [2] [µg/mL]	MIC [3] [µg/mL]	MIC [4] [µg/mL]	MIC [5] [µg/mL]	MIC [6] [µg/mL]	MIC [7] [µg/mL]	MIC [8] [µg/mL]	MIC [9] [µg/mL]	MIC [10] [µg/mL]	MIC ([1]; Staphylococcus aureus, X1.1, read-out: minimal inhibitory concentration (MIC)) [µg/mL]
CC[C@@H](O)[C@@](C)(O)[C@@H]1OC(=O)[C@H](C)[C@@H](O[C@H]2C[C@@](C)(OC)[C@@H](O)[C@H](C)O2)[C@H](C)[C@@H](O[C@@H]2O[C@H](C)C[C@H](N(C)C)[C@H]2O)[C@@]2(C)CC(C)(O)C(O)(O2)[C@@H]1C (some centres unmarked) [Compound 6]	–	> 128	> 128	64 (≈ 85.3 µM)	16 (≈ 21.3 µM)	8 (≈ 10.7 µM)	16 (≈ 21.3 µM)	64 (≈ 85.3 µM)	8 (≈ 10.7 µM)	8 (≈ 10.7 µM)	128 (≈ 171 µM)

From patent US5106961A, “Erythromycin ring-contracted derivatives” (Eli Lilly and Company, priority 1989, dated 1992)
